Measurements from US7205382B2, “Peptides, the production and use thereof for binding immunoglobulins” (Fresenius Medical Care Affina GmbH, priority 2000, dated 2007).
Bridge positions count the residues as written; N and C are the ends. Square brackets hold non-standard residues; d marks the D form. Ends that are not written are not given here. cellulose = not defined here; βAla = NCCC(=O)O

Experiments:
Format in all cases: binding
Design in all cases: key: No binding of immunoglobulin for the defined peptide variant, detection negative: 0; Binding of immunoglobulin for the defined peptide variant, detection positive: +
human IgG-Fc = test: Cellulose-immobilized 13-mer peptide variants incubated with human IgG-Fc, anti-human IgG-AP detection; conditions: IgG-Fc 1 μg/ml in blocking buffer, 3 h room temperature
Method in brief: (§1)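 SPOT-type 13-mer peptides on cellulose with a (βA)(βA) spacer, blocked in 5% saccharose/4% BSA in T-TBS pH 8.0. Incubated 3 h at RT with human IgG-Fc (1 μg/ml) or human serum/plasma (1:10,000), or with blocking buffer alone as the albumin specificity control. Bound IgG detected with AP-anti-human IgG (1.2 μg/ml) and NBT/BCIP colorimetric development at pH 9.5.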

serum albumin = test: Cellulose-immobilized 13-mer peptide variants incubated with serum albumin (negative control), anti-human IgG-AP detection; conditions: blocking buffer without addition, 3 h room temperature
Method in brief: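 Read-out was colorimetric NBT/BCIP staining (developing buffer pH 9.5) after alkaline phosphatase-conjugated anti-human IgG at 1.2 μg/ml. Before this, the immobilized peptides had been incubated 3 h at room temperature with 1 μg/ml IgG-Fc, 1:10,000 diluted serum, or albumin-containing blocking buffer without addition.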

[1] = test system: immunoglobulins in human plasma; test: Cellulose-immobilized 13-mer peptide variants incubated with human plasma, anti-human IgG-AP detection; conditions: human plasma as sample, diluted 1:10,000 in blocking buffer, 3 h room temperature
Method in brief: as §1

Result for incubation with human IgG-Fc (immunoglobulin binding detection) (human IgG-Fc)	Result for incubation with serum albumin (immunoglobulin binding detection) (serum albumin)	Result for incubation with human plasma (immunoglobulin binding detection) [1]	Substance
+	0	0	11K: cellulose-bound 13-mer variant DCAWHLGELVKCT-(βA)(βA)
0	0	0	10Y: cellulose-bound 13-mer variant DCAWHLGELYWCT-(βA)(βA) (DCAWHLGELYWCT-{βAla-βAla-cellulose}; disulfide 2-12 (inferred); reading uncertain; also: printed as DCAWHLGELYWCT-(βA)(βA))
0	0	0	09V: cellulose-bound 13-mer variant DCAWHLGEVVWCT-(βA)(βA) (DCAWHLGEVVWCT-{βAla-βAla-cellulose}; disulfide 2-12 (inferred); reading uncertain; also: printed as DCAWHLGEVVWCT-(βA)(βA))
+	0	+	04T: cellulose-bound 13-mer variant DCATHLGELVWCT-(βA)(βA) (disulfide 2-12 (inferred); not fully specified (N-terminus, C-terminus); printed as DCATHLGELVWCT-(βA)(βA); also: cellulose-bound)
0	0	0	09Y: cellulose-bound 13-mer variant DCAWHLGEYVWCT-(βA)(βA) (DCAWHLGEYVWCT-{βAla-βAla-cellulose}; disulfide 2-12 (inferred); reading uncertain; also: printed as DCAWHLGEYVWCT-(βA)(βA))
0	0	0	09S: cellulose-bound 13-mer variant DCAWHLGESVWCT-(βA)(βA) (DCAWHLGESVWCT-{βAla-βAla-cellulose}; disulfide 2-12 (inferred); reading uncertain; also: printed as DCAWHLGESVWCT-(βA)(βA))
0	0	0	09H: cellulose-bound 13-mer variant DCAWHLGEHVWCT-(βA)(βA) (DCAWHLGEHVWCT-{βAla-βAla-cellulose}; disulfide 2-12 (inferred); reading uncertain; also: printed as DCAWHLGEHVWCT-(βA)(βA))

Second part, the substance before the results:

Substance	Result for incubation with human IgG-Fc (immunoglobulin binding detection) (human IgG-Fc)	Result for incubation with serum albumin (immunoglobulin binding detection) (serum albumin)	Result for incubation with human plasma (immunoglobulin binding detection) [1]
10A: cellulose-bound 13-mer variant DCAWHLGELAWCT-(βA)(βA) (DCAWHLGELAWCT-{βAla-βAla-cellulose}; disulfide 2-12 (inferred); reading uncertain; also: printed as DCAWHLGELAWCT-(βA)(βA))	0	0	0
07M: cellulose-bound 13-mer variant DCAWHLMELVWCT-(βA)(βA) (DCAWHLMELVWCT-{βAla-βAla-cellulose}; disulfide 2-12 (inferred); not fully specified (N-terminus); printed as DCAWHLMELVWCT-(βA)(βA); reading uncertain)	0	0	0
12G: cellulose-bound 13-mer variant DCAWHLGELVWGT-(βA)(βA) (DCAWHLGELVWGT-{βAla-βAla-cellulose}; not fully specified; printed as DCAWHLGELVWGT-(βA)(βA); reading uncertain)	0	0	0
08A: cellulose-bound 13-mer variant DCAWHLGALVWCT-(βA)(βA) (DCAWHLGALVWCT-{βAla-βAla-cellulose}; disulfide 2-12 (inferred); not fully specified (N-terminus); printed as DCAWHLGALVWCT-(βA)(βA); reading uncertain)	+	0	0
05N: cellulose-bound 13-mer variant DCAWNLGELVWCT-(βA)(βA) (disulfide 2-12 (inferred); not fully specified (N-terminus, C-terminus); printed as DCAWNLGELVWCT-(βA)(βA); also: cellulose-bound)	0	0	0
07N: cellulose-bound 13-mer variant DCAWHLNELVWCT-(βA)(βA) (DCAWHLNELVWCT-{βAla-βAla-cellulose}; disulfide 2-12 (inferred); not fully specified (N-terminus); printed as DCAWHLNELVWCT-(βA)(βA); reading uncertain)	0	0	0
10L: cellulose-bound 13-mer variant DCAWHLGELLWCT-(βA)(βA) (DCAWHLGELLWCT-{βAla-βAla-cellulose}; disulfide 2-12 (inferred); reading uncertain; also: printed as DCAWHLGELLWCT-(βA)(βA))	0	0	0
09G: cellulose-bound 13-mer variant DCAWHLGEGVWCT-(βA)(βA) (DCAWHLGEGVWCT-{βAla-βAla-cellulose}; disulfide 2-12 (inferred); reading uncertain; also: printed as DCAWHLGEGVWCT-(βA)(βA))	0	0	0
01W: cellulose-bound 13-mer variant WCAWHLGELVWCT-(βA)(βA) (WCAWHLGELVWCT-{βAla-βAla-cellulose}; disulfide 2-12 (inferred); reading uncertain; also: printed as WCAWHLGELVWCT-(βA)(βA))	0	0	0
08W: cellulose-bound 13-mer variant DCAWHLGWLVWCT-(βA)(βA) (DCAWHLGWLVWCT-{βAla-βAla-cellulose}; disulfide 2-12 (inferred); reading uncertain; also: printed as DCAWHLGWLVWCT-(βA)(βA))	0	0	0
08M: cellulose-bound 13-mer variant DCAWHLGMLVWCT-(βA)(βA) (DCAWHLGMLVWCT-{βAla-βAla-cellulose}; disulfide 2-12 (inferred); not fully specified (N-terminus); printed as DCAWHLGMLVWCT-(βA)(βA); reading uncertain)	+	0	+
02L: cellulose-bound 13-mer variant DLAWHLGELVWCT-(βA)(βA) (DLAWHLGELVWCT[βAla][βAla]; not fully specified; printed as DLAWHLGELVWCT-(βA)(βA); also: cellulose-bound)	0	0	0
10R: cellulose-bound 13-mer variant DCAWHLGELRWCT-(βA)(βA) (DCAWHLGELRWCT-{βAla-βAla-cellulose}; disulfide 2-12 (inferred); reading uncertain; also: printed as DCAWHLGELRWCT-(βA)(βA))	0	0	0
